Laboratory results as given in publication PMC8160793, “Potent Antimicrobial and Antibiofilm Activities of Feleucin-K3 Analogs Modified by α-(4-Pentenyl)-Ala against Multidrug-Resistant Bacteria” (Biomolecules, 2021).
≈ marks a conversion by molar mass, not a printed value. Square brackets hold non-standard residues; d marks the D form. Peptide text beside a SMILES is read from it. ξ: configuration not given here. ξαMeGly(pent-4-enyl) = C=CCCCC(C)(N)C(=O)O

How the values were obtained:
MRSA 936 = type: cell-based, Staphylococcus aureus; details: 936, 18 h
Description: (§1) The minimum inhibitory concentration (MIC) of the Feleucin-K3 analogs was tested by the broth microdilution method. Sensitive bacteria and drug-resistant bacteria were diluted to 1 × 10^6 CFU/mL, according to the McFarland standards. Bacterial suspension and peptide solutions (8–128 μg/mL) were incubated at 37 °C for 18 h. The minimum concentration without obvious bacterial growth was the MIC of the peptides. The stability of the analogs in a physiological salt environment was also investigated. In brief, salt powder (450-mM NaCl) was dissolved in deionized water, and the following investigational steps were the same as those described before. The above steps were repeated several times, until the same value was obtained three times.

MRSA 23 = type: cell-based, Staphylococcus aureus; details: 23, 18 h
Description: as §1

MRSA 71 = type: cell-based, Staphylococcus aureus; details: 71, 18 h
Description: as §1

MRSA 113 = type: cell-based, Staphylococcus aureus; details: 113, 18 h
Description: as §1

MRSA 74 = type: cell-based, Staphylococcus aureus; details: 74, 18 h
Description: as §1

MRSA 51 = type: cell-based, Staphylococcus aureus; details: 51, 18 h
Description: as §1

MRSA 48 = type: cell-based, Staphylococcus aureus; details: 48, 18 h
Description: as §1

S. aureus 794 = type: cell-based, Staphylococcus aureus; details: 794, 18 h
Description: as §1

MRSA ATCC 33591 = type: cell-based, Staphylococcus aureus; details: ATCC 33591, 18 h
Description: as §1

MRSA 75 = type: cell-based, Staphylococcus aureus; details: 75, 18 h
Description: as §1

MRSA 52 = type: cell-based, Staphylococcus aureus; details: 52, 18 h
Description: as §1

S. aureus ATCC 25923 = type: cell-based, Staphylococcus aureus; details: ATCC 25923, 18 h
Description: as §1

S. aureus 725 = type: cell-based, Staphylococcus aureus; details: 725, 18 h
Description: as §1

MRSA 54 = type: cell-based, Staphylococcus aureus; details: 54, 18 h
Description: as §1

A. baumannii 97830 = type: cell-based, Acinetobacter baumannii; details: 97830, 18 h
Description: as §1

A. baumannii 9828 = type: cell-based, Acinetobacter baumannii; details: 9828, 18 h
Description: as §1

A. baumannii 98110 = type: cell-based, Acinetobacter baumannii; details: 98110, 18 h
Description: as §1

A. baumannii 9896 = type: cell-based, Acinetobacter baumannii; details: 9896, 18 h
Description: as §1

A. baumannii 91105 = type: cell-based, Acinetobacter baumannii; details: 91105, 18 h
Description: as §1

A. baumannii 9336 = type: cell-based, Acinetobacter baumannii; details: 9336, 18 h
Description: as §1

A. baumannii 91199 = type: cell-based, Acinetobacter baumannii; details: 91199, 18 h
Description: as §1

A. baumannii 9331 = type: cell-based, Acinetobacter baumannii; details: 9331, 18 h
Description: as §1

A. baumannii 91152 = type: cell-based, Acinetobacter baumannii; details: 91152, 18 h
Description: as §1

A. baumannii 9840 = type: cell-based, Acinetobacter baumannii; details: 9840, 18 h
Description: as §1

A. baumannii 91869 = type: cell-based, Acinetobacter baumannii; details: 91869, 18 h
Description: as §1

A. baumannii 51243 = type: cell-based, Acinetobacter baumannii; details: 51243, 18 h
Description: as §1

A. baumannii 91944 = type: cell-based, Acinetobacter baumannii; details: 91944, 18 h
Description: as §1

A. baumannii 8309 = type: cell-based, Acinetobacter baumannii; details: 8309, 18 h
Description: as §1

A. baumannii 92359 = type: cell-based, Acinetobacter baumannii; details: 92359, 18 h
Description: as §1

A. baumannii 822144 = type: cell-based, Acinetobacter baumannii; details: 822144, 18 h
Description: as §1

A. baumannii 5444 = type: cell-based, Acinetobacter baumannii; details: 5444, 18 h
Description: as §1

A. baumannii 9234 = type: cell-based, Acinetobacter baumannii; details: 9234, 18 h
Description: as §1

A. baumannii 9236 = type: cell-based, Acinetobacter baumannii; details: 9236, 18 h
Description: as §1

A. baumannii ATCC 19606 = type: cell-based, Acinetobacter baumannii; details: ATCC 19606, 18 h
Description: as §1

A. baumannii 91810 = type: cell-based, Acinetobacter baumannii; details: 91810, 18 h
Description: as §1

E. coli ATCC 25922 = type: cell-based; details: ATCC 25922, 18 h
Description: as §1

P. aeruginosa ATCC 27853 = type: cell-based, Pseudomonas aeruginosa; details: ATCC 27853, 18 h
Description: as §1

P. aeruginosa = test: Resistance development assay, sequential passaging; type: cell-based, Pseudomonas aeruginosa; details: serial passage at sub-MIC, 20 passages
Description: (§2) Serial passage and MIC determination were used to explore whether the bacteria developed drug resistance. On the first day, the MICs of the peptides were determined as described above. The next day, the bacterial suspension of sub-MIC concentration was cultivated to the mid-log phase. The MICs of the peptides were detected again, and this process was repeated for 20 days. The MICs of the antibiotics, including amoxicillin (AML), ceftazidime (CAZ) and imipenem, were also determined as controls.

E. coli = test: Resistance development assay, sequential passaging; type: cell-based; details: serial passage at sub-MIC, 20 passages
Description: as §2

| Structure (SMILES) | MIC, MRSA 936 (MRSA 936) [µg/mL] | MIC, MRSA 23 (MRSA 23) [µg/mL] | MIC, MRSA 71 (MRSA 71) [µg/mL] | MIC, MRSA 113 (MRSA 113) [µg/mL] | MIC, MRSA 74 (MRSA 74) [µg/mL] | MIC, MRSA 51 (MRSA 51) [µg/mL] | MIC, MRSA 48 (MRSA 48) [µg/mL] | MIC, S. aureus 794 (S. aureus 794) [µg/mL] | MIC, MRSA ATCC 33591 (MRSA ATCC 33591) [µg/mL] | MIC, MRSA 75 (MRSA 75) [µg/mL] | MIC, MRSA 52 (MRSA 52) [µg/mL] | MIC, S. aureus ATCC 25923 (S. aureus ATCC 25923) [µg/mL] | MIC, S. aureus 725 (S. aureus 725) [µg/mL] | MIC, MRSA 54 (MRSA 54) [µg/mL] | MIC, A. baumannii 97830 (A. baumannii 97830) [µg/mL] | MIC, A. baumannii 9828 (A. baumannii 9828) [µg/mL] | MIC, A. baumannii 98110 (A. baumannii 98110) [µg/mL] | MIC, A. baumannii 9896 (A. baumannii 9896) [µg/mL] | MIC, A. baumannii 91105 (A. baumannii 91105) [µg/mL] | MIC, A. baumannii 9336 (A. baumannii 9336) [µg/mL] | other results |
| --- | --- | --- | --- | --- | --- | --- | --- | --- | --- | --- | --- | --- | --- | --- | --- | --- | --- | --- | --- | --- | --- |
| C=CCCCC(C)(NC(=O)[C@H](CC(C)C)NC(=O)[C@H](CC(C)C)NC(=O)[C@H](CCCCN)NC(=O)[C@H](CC(C)C)NC(=O)[C@@H](N)Cc1ccccc1)C(=O)N[C@@H](CCCCN)C(=O)N[C@@H](CC(C)C)C(=O)N[C@@H](CC(C)C)C(N)=O (stereo partly shown) [Feleucin-K71] (H-FLKLL[ξαMeGly(pent-4-enyl)]KLL-NH2) | 4 (≈ 3.55 µM) | 4 (≈ 3.55 µM) | 4 (≈ 3.55 µM) | 4 (≈ 3.55 µM) | 4 (≈ 3.55 µM) | 4 (≈ 3.55 µM) | 4 (≈ 3.55 µM) | 16 (≈ 14.2 µM) | 4 (≈ 3.55 µM) | 4 (≈ 3.55 µM) | 4 (≈ 3.55 µM) | 4 (≈ 3.55 µM) | 4 (≈ 3.55 µM) | 4 (≈ 3.55 µM) | 32 (≈ 28.4 µM) | 16 (≈ 14.2 µM) | 16 (≈ 14.2 µM) | 8 (≈ 7.11 µM) | 8 (≈ 7.11 µM) | 8 (≈ 7.11 µM) | MIC, A. baumannii 91199 (A. baumannii 91199): 16 µg/mL (≈ 14.2 µM); MIC, A. baumannii 9331 (A. baumannii 9331): 64 µg/mL (≈ 56.9 µM); MIC, A. baumannii 91152 (A. baumannii 91152): 16 µg/mL (≈ 14.2 µM); MIC, A. baumannii 9840 (A. baumannii 9840): 8 µg/mL (≈ 7.11 µM); MIC, A. baumannii 91869 (A. baumannii 91869): 8 µg/mL (≈ 7.11 µM); MIC, A. baumannii 51243 (A. baumannii 51243): 32 µg/mL (≈ 28.4 µM); MIC, A. baumannii 91944 (A. baumannii 91944): 16 µg/mL (≈ 14.2 µM); MIC, A. baumannii 8309 (A. baumannii 8309): 8 µg/mL (≈ 7.11 µM); MIC, A. baumannii 92359 (A. baumannii 92359): 16 µg/mL (≈ 14.2 µM); MIC, A. baumannii 822144 (A. baumannii 822144): 16 µg/mL (≈ 14.2 µM); MIC, A. baumannii 5444 (A. baumannii 5444): 8 µg/mL (≈ 7.11 µM); MIC, A. baumannii 9234 (A. baumannii 9234): 8 µg/mL (≈ 7.11 µM); MIC, A. baumannii 9236 (A. baumannii 9236): 16 µg/mL (≈ 14.2 µM); MIC, A. baumannii ATCC 19606 (A. baumannii ATCC 19606): 4 µg/mL (≈ 3.55 µM); MIC, A. baumannii 91810 (A. baumannii 91810): 16 µg/mL (≈ 14.2 µM); MIC, E. coli ATCC 25922 (E. coli ATCC 25922): 16 µg/mL (≈ 14.2 µM); MIC, P. aeruginosa ATCC 27853 (P. aeruginosa ATCC 27853): 8 µg/mL (≈ 7.11 µM) |
| C=CCCCC(C)(NC(=O)[C@H](CC(C)C)NC(=O)[C@H](CCCCN)NC(=O)[C@H](CC(C)C)NC(=O)[C@@H](N)Cc1ccccc1)C(=O)N[C@@H](CCCCN)C(=O)N[C@@H](CCCCN)C(=O)N[C@@H](CC(C)C)C(=O)N[C@@H](CC(C)C)C(N)=O (stereo partly shown) [Feleucin-K68] (H-FLKL[ξαMeGly(pent-4-enyl)]KKLL-NH2) | 4 (≈ 3.51 µM) | 4 (≈ 3.51 µM) | 8 (≈ 7.01 µM) | 4 (≈ 3.51 µM) | 4 (≈ 3.51 µM) | 4 (≈ 3.51 µM) | 4 (≈ 3.51 µM) | 8 (≈ 7.01 µM) | 4 (≈ 3.51 µM) | 4 (≈ 3.51 µM) | 8 (≈ 7.01 µM) | 4 (≈ 3.51 µM) | 4 (≈ 3.51 µM) | 4 (≈ 3.51 µM) | 4 (≈ 3.51 µM) | 4 (≈ 3.51 µM) | 4 (≈ 3.51 µM) | 4 (≈ 3.51 µM) | 4 (≈ 3.51 µM) | 4 (≈ 3.51 µM) | MIC, A. baumannii 91199 (A. baumannii 91199): 4 µg/mL (≈ 3.51 µM); MIC, A. baumannii 9331 (A. baumannii 9331): 8 µg/mL (≈ 7.01 µM); MIC, A. baumannii 91152 (A. baumannii 91152): 4 µg/mL (≈ 3.51 µM); MIC, A. baumannii 9840 (A. baumannii 9840): 4 µg/mL (≈ 3.51 µM); MIC, A. baumannii 91869 (A. baumannii 91869): 4 µg/mL (≈ 3.51 µM); MIC, A. baumannii 51243 (A. baumannii 51243): 4 µg/mL (≈ 3.51 µM); MIC, A. baumannii 91944 (A. baumannii 91944): 4 µg/mL (≈ 3.51 µM); MIC, A. baumannii 8309 (A. baumannii 8309): 4 µg/mL (≈ 3.51 µM); MIC, A. baumannii 92359 (A. baumannii 92359): 4 µg/mL (≈ 3.51 µM); MIC, A. baumannii 822144 (A. baumannii 822144): 4 µg/mL (≈ 3.51 µM); MIC, A. baumannii 5444 (A. baumannii 5444): 4 µg/mL (≈ 3.51 µM); MIC, A. baumannii 9234 (A. baumannii 9234): 4 µg/mL (≈ 3.51 µM); MIC, A. baumannii 9236 (A. baumannii 9236): 4 µg/mL (≈ 3.51 µM); MIC, A. baumannii ATCC 19606 (A. baumannii ATCC 19606): 4 µg/mL (≈ 3.51 µM); MIC, A. baumannii 91810 (A. baumannii 91810): 4 µg/mL (≈ 3.51 µM); MIC, E. coli ATCC 25922 (E. coli ATCC 25922): 8 µg/mL (≈ 7.01 µM); MIC, P. aeruginosa ATCC 27853 (P. aeruginosa ATCC 27853): 8 µg/mL (≈ 7.01 µM) |
| CC(C)(O/N=C(\C(=O)N[C@@H]1C(=O)N2C(C(=O)[O-])=C(C[n+]3ccccc3)CS[C@H]12)c1csc(N)n1)C(=O)O [CAZ, ceftazidime] | – | – | – | – | – | – | – | – | – | – | – | – | – | – | – | – | – | – | – | – | fold increase of MIC, P. aeruginosa (P. aeruginosa): 32 fold; fold increase of MIC, E. coli (E. coli): 16 fold |
